{"source": "patent US11925611B2", "about": "“Use of ZT-1A and analogs thereof to prevent and/or treat neurodegenerative and neurocognitive disorders” (United States Government as Represented by the Department …, priority 2021, dated 2024)", "key": {"BCAS mice": {"system": "BCAS mice", "experiment": "Ex-vivo MRI DTI analysis of white matter lesion in BCAS mice", "design": "species or system C57BL/6J mice", "conditions": "4 wks post-BCAS, vs Veh-control", "source_text": "Clinically, most patients with intracranial atherosclerotic stenosis suffer from permanent stenosis without occlusion. Therefore, to mimic clinical atherosclerotic stenosis with permanent carotid artery (CCA) hypoperfusion, a modified BCAS model was adapted by ligating the CCA guided with a 30 gauge needle (0.31 mm diameter) in the right CCA and a 33 gauge needle (0.21 mm diameter) in the left CCA with a 4-0 silk suture. […] Next, changes of total NKCC1 (tNKCC1) protein expression were surveyed in different brain regions at 2 and 4 wks post-surgery by immunofluorescence staining (IF). […] Therefore, in the rest of the study, the investigation was focused on its association to white matter GFAP^+ astrogliosis and lesion of CC and external capsul (EC) tracks. […] However, by 2 wks post-BCAS surgery, tNKCC1 immunofluorescence intensity in the CC tracks was increased by ˜3 folds (p<0.05), and further elevated to ˜6 folds by 4 wks (p<0.05, arrowhead). Data are mean±SEM, n=4, *p<0.05, **p<0.01. […] The upregulation of tNKCC1 and GFAP protein expression in the CC is correlated, with a Pearson's correlation coefficient of r=0.9 (p<0.001). […] In contrast, no elevated tNKCC1 protein was detected either in Iba1^+ microglia/macrophages or in Olig2+ oligodendrocytes (OL) at 4 wks post-BCAS surgery (FIG. 1D). Without wishing to be bound by theory, these findings indicate that upregulation of NKCC1 expression and activity in reactive astrocytes may play a critical role in white matter inflammation, OL death, and demyelination after BCAS. Next, whether administration of SPAK inhibitor ZT-1a reduces WML and improves cognitive functions was examined. Starting at 14 days after BCAS surgery in mice (male), either vehicle DMSO (Veh, 2 ml/kg) or ZT-1a (5 mg/kg, every 72 h, i.p) was administered every 3 days, until they were sacrificed at day 35 post-BCAS (FIG. 3A). […] Motor functions are similar in all groups and average swimming speeds were not different in the Sham-, Veh- and ZT-1a-treated mice. Data are mean±SEM, n=6 (Sham and ZT-1a) or 5 (Veh), *p<0.01 vs. sham, *p<0.05 vs. Veh. After completion of the neurological function tests in the Veh-control and ZT-1a-treated BCAS cohort mice (as shown in FIG. 3A and FIG. 3B), ex-vivo brains were harvested for MRI DTI (diffusion tensor imaging) analysis of WML at 4 wks post-BCAS detected by DTI. The fractional anisotropy (FA), radial diffusivity (RD), and mean diffusivity (MD) of the CC and EC tracks were analyzed. Representative images of the DEC maps in FIG. 4A show severe loss of axonal fibers (arrowheads) in the CC and left EC of the Veh-control brains. […] These observations are consistent with changes of FA, RD, and MD values (FIG. 4B). […] Then MBP expression levels were measured in these brains by immunostaining. […]"}, "Coil BCAS mice": {"system": "Coil BCAS mice", "experiment": "Coil BCAS model, delayed administration (NOR, MBP immunostaining, CBF, body weight)", "format": "in vivo", "procedure": "The efficacy of administration of ZT-1a starting at 4 wks post-BCAS surgery, when matter demyelination has reached its peak, was examined next. To test the reproducibility of these findings, in this pilot study, the Coil BCAS model was used by placing two microcoils (0.18 mm diameter) in each CCAs, a well-established model with CBF reduction and accompanied by ischemic lesion to white matter tracks, cortex, and hippocampus. Either vehicle DMSO (Veh, 2 ml/kg) or ZT-1a (5 mg/kg, every 72 h, i.p) was administered at 4-8 wks post-BCAS (i.e., during 28-56 days after coil-BCAS, every 3 days) (FIG. 7A). […] Then MBP expression levels were examined in these brains by immunostaining. […] Data are mean±SEM, n=5-8, *p<0.01 vs. sham, *p<0.05 vs. Veh."}}, "data": [{"smiles": "Cc1cc(C(C#N)c2ccc(Cl)cc2)c(Cl)cc1NC(=O)c1cc(Cl)ccc1O", "note": "(centres unmarked) [1a (ZT-1a)]", "values": [{"measurement": "integrity of the CC and EC tracks (DEC maps)", "setting": "BCAS mice; 5 mg/kg i.p. every 72 h, both hemispheres", "value": "better-preserved integrity"}, {"measurement": "fractional anisotropy (FA) values", "setting": "BCAS mice; p<0.05", "value": "significantly higher"}, {"measurement": "mean diffusivity (MD) values", "setting": "BCAS mice; p<0.05", "value": "lower"}, {"measurement": "radial diffusivity (RD) values", "setting": "BCAS mice; p<0.05", "value": "lower"}, {"measurement": "memory function in novel objective recognition test (NOR)", "setting": "Coil BCAS mice; 5 mg/kg i.p. every 72 h at 4-8 wks post-BCAS", "value": "no memory function impairment"}, {"measurement": "body weight changes", "setting": "Coil BCAS mice; 5 mg/kg i.p. every 72 h at 4-8 wks post-BCAS, data not shown", "value": "No body weight changes"}, {"measurement": "MBP levels in CC and EC tracts", "setting": "Coil BCAS mice; delayed administration 4-8 wks post-BCAS, p<0.05", "value": "significantly increased"}, {"measurement": "cerebral blood flow (CBF)", "setting": "Coil BCAS mice; delayed treatment for four weeks, by 8 wks post-BCAS", "value": "significantly improved"}]}]}
